Data published in PubChem BioAssay AID330 (DTP/NCI, 2004).
Values joined by “and” are separate entries in the source; they are usually repeats but may differ in a detail not shown here. Equal entries are not always repeated. Inconclusive results and toxic doses are left out. Peptide text beside a SMILES is read from it.

Tested on: P388 leukemia ip, CD2F1 mice, survival T/C
Experiment: NCI In Vivo Anticancer Drug Screen. Data for tumor model P388 Leukemia (intraperitoneal) in CD2F1 (CDF1) mice
Conditions: endpoint: median survival time, higher = longer survival
Procedure, shortened: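 Mice carrying the transplanted tumor received test compound or vehicle. Survival was recorded in each group, and the value is the treated-group measurement divided by that of the vehicle-treated control group.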

[1] = dose: 60.0 mg/kg/injection, schedule: Q01DX005 (ip), vehicle: saline with Tween-80
[2] = dose: 120.0 mg/kg/injection, schedule: Q01DX005 (ip), vehicle: saline with Tween-80
[3] = dose: 240.0 mg/kg/injection, schedule: Q01DX005 (ip), vehicle: saline with Tween-80
[4] = dose: 50.0 mg/kg/injection, schedule: Q01DX009 (ip), vehicle: saline
[5] = dose: 100.0 mg/kg/injection, schedule: Q01DX009 (ip), vehicle: saline
[6] = dose: 200.0 mg/kg/injection, schedule: Q01DX009 (ip), vehicle: saline
[7] = dose: 50.0 mg/kg/injection, schedule: Q01DX005 (ip), vehicle: saline with Tween-80
[8] = dose: 100.0 mg/kg/injection, schedule: Q01DX005 (ip), vehicle: saline with Tween-80
[9] = dose: 200.0 mg/kg/injection, schedule: Q01DX005 (ip), vehicle: saline with Tween-80
[10] = dose: 50.0 mg/kg/injection, schedule: Q01DX009 (ip), vehicle: saline with Tween-80
[11] = dose: 100.0 mg/kg/injection, schedule: Q01DX009 (ip), vehicle: saline with Tween-80
[12] = dose: 200.0 mg/kg/injection, schedule: Q01DX009 (ip), vehicle: saline with Tween-80
[13] = dose: 50.0 mg/kg/injection, schedule: Q01DX005 (ip), vehicle: Klucel (hydroxypropylcellulose) (HPC)
[14] = dose: 100.0 mg/kg/injection, schedule: Q01DX005 (ip), vehicle: Klucel (hydroxypropylcellulose) (HPC)
[15] = dose: 12.5 mg/kg/injection, schedule: Q01DX005 (ip), vehicle: saline
[16] = dose: 25.0 mg/kg/injection, schedule: Q01DX005 (ip), vehicle: saline
[17] = dose: 25.0 mg/kg/injection, schedule: Q01DX009 (ip), vehicle: saline
[18] = dose: 12.5 mg/kg/injection, schedule: Q01DX009 (ip), vehicle: saline

O=C1OCCOCCOCCOCCOC(=O)c2cccc1n2
T/C (dose: 100.0 mg/kg/injection, schedule: Q04DX003 (ip), vehicle: Klucel (hydroxypropylcellulose) (HPC)): 105 % of control | T/C (dose: 200.0 mg/kg/injection, schedule: Q04DX003 (ip), vehicle: Klucel (hydroxypropylcellulose) (HPC)): 104 % of control | T/C (dose: 400.0 mg/kg/injection, schedule: Q04DX003 (ip), vehicle: Klucel (hydroxypropylcellulose) (HPC)): 102 % of control

CCOCCOCCOC(C)Oc1ccccc1OC (stereo not drawn)
T/C [1]: 100 % of control | T/C [2]: 104 % of control | T/C [3]: 106 % of control

CCOc1ccc2nc([NH-])sc2c1.CCOc1ccc2nc([NH-])sc2c1.CCOc1ccc2nc([NH-])sc2c1.CCOc1ccc2nc([NH-])sc2c1.[Cl][Rh][Cl]
T/C (dose: 12.5 mg/kg/injection, schedule: Q01DX001 (ip), vehicle: DMSO): 102 % of control | T/C (dose: 25.0 mg/kg/injection, schedule: Q01DX001 (ip), vehicle: DMSO): 102 % of control and 105 % of control | T/C (dose: 50.0 mg/kg/injection, schedule: Q01DX001 (ip), vehicle: DMSO): 107 % of control and 94 % of control | T/C (dose: 100.0 mg/kg/injection, schedule: Q01DX001 (ip), vehicle: DMSO): 113 % of control and 124 % of control and 91 % of control

FS(F)(F)(F)(F)c1cccc(NC(=S)SCc2ccc(Cl)cc2)c1
T/C [4]: 100 % of control | T/C [5]: 101 % of control and 95 % of control | T/C [6]: 107 % of control and 118 % of control

C(=N[C@H]1CCCC[C@H]1N=Cc1ccccn1)c1ccccn1
T/C [7]: 95 % of control | T/C [8]: 90 % of control | T/C [9]: 101 % of control

Cc1ccc(C2=C/C(=C/c3ccc(N(CCC#N)CCC#N)cc3)C(=O)O2)cc1C
T/C (dose: 100.0 mg/kg/injection, schedule: Q01DX001 (ip), vehicle: saline with Tween-80): 94 % of control | T/C (dose: 200.0 mg/kg/injection, schedule: Q01DX001 (ip), vehicle: saline with Tween-80): 90 % of control | T/C (dose: 400.0 mg/kg/injection, schedule: Q01DX001 (ip), vehicle: saline with Tween-80): 97 % of control

O=C(OC1(c2nccc3ccccc23)CCCN(Cc2ccccc2)C1)c1ccccc1 (stereo not drawn)
T/C [10]: 106 % of control | T/C [11]: 109 % of control | T/C [12]: 104 % of control

O=C1CCC(c2nc3ccccc3[nH]2)N1Cc1ccccc1 (stereo not drawn)
T/C [1]: 97 % of control | T/C [2]: 90 % of control | T/C [3]: 89 % of control

CC(=O)Nc1[c-]cccc1.CC(=O)Nc1[c-]cccc1.CC(=O)O.CC(=O)O.[Pd].[Pd]
T/C (dose: 6.25 mg/kg/injection, schedule: Q01DX005 (ip), vehicle: saline with Tween-80): 94 % of control | T/C (dose: 12.5 mg/kg/injection, schedule: Q01DX005 (ip), vehicle: saline with Tween-80): 95 % of control and 98 % of control | T/C (dose: 25.0 mg/kg/injection, schedule: Q01DX005 (ip), vehicle: saline with Tween-80): 119 % of control and 98 % of control | T/C [7]: 100 % of control and 110 % of control

CCCCN(CCCC)C1CCC(Nc2ccnc3cc(Cl)ccc23)CC1 (stereo not drawn)
T/C [13]: 98 % of control | T/C [14]: 95 % of control

NC(N)=NCCCC(N)C(=O)N1CCCC1C(=O)N1CCCC1C(=O)NC(CCCN=C(N)N)C(=O)O (stereo not drawn) (H-RPPR-OH; configuration not given here)
T/C [15]: 100 % of control | T/C [16]: 105 % of control | T/C (dose: 50.0 mg/kg/injection, schedule: Q01DX005 (ip), vehicle: saline): 101 % of control

CC1(C)N=C(N)N=C(N)N1c1ccc(OCCCCNC(=O)c2ccc(S(=O)(=O)F)cc2)c(Cl)c1
T/C (dose: 25.0 mg/kg/injection, schedule: Q01DX009 (ip), vehicle: saline with Tween-80): 150 % of control | T/C [17]: 161 % of control | T/C [4]: 159 % of control

COc1ccc2c(O)c3[n+](cc2c1OC)CCc1cc2c(cc1-3)OCO2
T/C [1]: 99 % of control | T/C [2]: 104 % of control | T/C [3]: 101 % of control

CN(C)c1ccc2[nH]c3ccccc3c2c1
T/C [1]: 107 % of control | T/C [2]: 108 % of control | T/C [3]: 121 % of control

COc1ccc(CCNC(=O)C(=O)c2c[nH]c3ccccc23)cc1OC
T/C [7]: 90 % of control | T/C [8]: 88 % of control | T/C [9]: 89 % of control

COC(/C=N/OC(=O)c1ccc([N+](=O)[O-])cc1)c1ccccc1 (stereo not drawn)
T/C (dose: 25.0 mg/kg/injection, schedule: Q04DX003 (ip), vehicle: saline with Tween-80): 89 % of control and 92 % of control | T/C (dose: 50.0 mg/kg/injection, schedule: Q04DX003 (ip), vehicle: saline with Tween-80): 92 % of control and 94 % of control

CSc1n[nH]c(-c2cccs2)n1
T/C (dose: 60.0 mg/kg/injection, schedule: Q01DX005 (ip), vehicle: Klucel (hydroxypropylcellulose) (HPC)): 104 % of control | T/C (dose: 120.0 mg/kg/injection, schedule: Q01DX005 (ip), vehicle: Klucel (hydroxypropylcellulose) (HPC)): 105 % of control

NC(C/C=C\Cl)C(=O)O (stereo not drawn)
T/C [13]: 102 % of control | T/C [14]: 98 % of control | T/C (dose: 200.0 mg/kg/injection, schedule: Q01DX005 (ip), vehicle: Klucel (hydroxypropylcellulose) (HPC)): 110 % of control

CC(C)CC(N)C(=O)OCN1C(=O)C2C3C=CC(C2C1=O)C1C2C(=O)N(COC(=O)C(N)CC(C)C)C(=O)C2C31 (stereo not drawn)
T/C [18]: 102 % of control and 105 % of control | T/C [17]: 105 % of control and 108 % of control | T/C [4]: 109 % of control and 119 % of control | T/C [5]: 162 % of control and 177 % of control

Cc1ccc(SCC(=O)NCc2cccs2)cc1
T/C [7]: 103 % of control | T/C [8]: 97 % of control | T/C [9]: 93 % of control

CNC(=O)OCc1c(COC(=O)NC)c2n(c1C)CCc1ccccc1-2
T/C (dose: 12.5 mg/kg/injection, schedule: Q01DX009 (ip), vehicle: distilled water + Tween-80): 153 % of control

O=C1OC(c2c[nH]c3ccccc3c2=O)c2ccccc21 (stereo not drawn)
T/C [1]: 103 % of control | T/C [2]: 95 % of control | T/C [3]: 88 % of control

CCOC1CC(=O)C2(C)C3CCC4(C)C(C(C)C5CC(C)=C(C)C(=O)O5)CCC4C3CC3OC32C1O (stereo not drawn)
T/C (dose: 9.12 mg/kg/injection, schedule: Q01DX009 (ip), vehicle: saline + alcohol): 101 % of control | T/C (dose: 18.25 mg/kg/injection, schedule: Q01DX009 (ip), vehicle: saline + alcohol): 96 % of control | T/C (dose: 36.5 mg/kg/injection, schedule: Q01DX009 (ip), vehicle: saline + alcohol): 100 % of control

Cn1ccnc1Sc1ccnc(Sc2ccc([N+](=O)[O-])cc2[N+](=O)[O-])n1
T/C [4]: 108 % of control | T/C [5]: 96 % of control | T/C [6]: 87 % of control

Cc1c2ccncc2c(C)c2c1[nH]c1ccc(O)cc12
T/C (dose: 6.25 mg/kg/injection, schedule: Q01DX009 (ip), vehicle: saline): 111 % of control | T/C (dose: 6.25 mg/kg/injection, schedule: Q01DX009 (ip), vehicle: suspension in saline): 150 % of control | T/C [18]: 169 % of control | T/C (dose: 12.5 mg/kg/injection, schedule: Q01DX009 (ip), vehicle: suspension in saline): 167 % of control

CC(=O)[C@@]1(O)CC[C@H]2[C@@H]3C[C@H](C)C4=CC(=O)CC[C@]4(C)[C@H]3[C@@H](O)C[C@@]21C
T/C (dose: 66.0 mg/kg/injection, schedule: Q01DX009 (ip), vehicle: saline with Tween-80): 100 % of control | T/C [11]: 100 % of control | T/C (dose: 150.0 mg/kg/injection, schedule: Q01DX009 (ip), vehicle: saline with Tween-80): 104 % of control

CO/N=C1\CC[C@@]2(C)[C@@H](CC[C@@H]3[C@@H]2CC[C@]2(C)C([C@H](C)CCCC(C)C)CC[C@@H]32)C1 (stereo partly drawn)
T/C [7]: 97 % of control | T/C [8]: 95 % of control | T/C [9]: 100 % of control

[Cl][Co][Cl].c1ccc2[nH]cnc2c1.c1ccc2[nH]cnc2c1
T/C [13]: 111 % of control | T/C [14]: 111 % of control

CC1C(c2ccccc2)NC(c2ccccc2)C(C)C1(O)c1ccccc1 (stereo not drawn)
T/C [7]: 107 % of control | T/C [8]: 107 % of control

CC1CC(=O)Nc2ncccc2N1 (stereo not drawn)
T/C [10]: 94 % of control | T/C [11]: 94 % of control | T/C [12]: 94 % of control

CCN(CC)CCS(=O)Cc1ccccc1 (stereo not drawn)
T/C [1]: 100 % of control | T/C [2]: 93 % of control | T/C [3]: 102 % of control

CC(=O)c1c(OCC(O)CN2CCN(C)CC2)cccc1OCC(O)CN1CCN(C)CC1 (stereo not drawn)
T/C (dose: 6.25 mg/kg/injection, schedule: Q01DX005 (ip), vehicle: saline): 105 % of control | T/C [15]: 101 % of control | T/C [16]: 105 % of control

O=C1C=CC(O)C2C1CC13SSC4(CC5C(=O)C=CC(O)C5N4C1=O)C(=O)N23 (stereo not drawn)
T/C (dose: 4.0 mg/kg/injection, schedule: Q01DX009 (ip), vehicle: Klucel (hydroxypropylcellulose) (HPC)): 107 % of control | T/C (dose: 8.0 mg/kg/injection, schedule: Q01DX009 (ip), vehicle: Klucel (hydroxypropylcellulose) (HPC)): 102 % of control

Oc1ccccc1CNc1ncc(Cl)cc1Cl
T/C [10]: 100 % of control | T/C [11]: 88 % of control | T/C [12]: 94 % of control
